From patent US20240277796A1, “METHODS FOR INHIBITING RAS” (Revolution Medicines, Inc., priority 2021, published 2024)
pIC50: −log10 of the molar value.

What was measured:
[1] = molecular target: K-Ras G13C (Homo sapiens, UniProt P01116, G13C); experiment: Raf-Ras (FRET or MOA) binding assay: disruption of BRAF RBD interaction with K-Ras G13C; details: with Cyclophilin A, TR-FRET; read-out: IC50 in the Raf-Ras (FRET or MOA) binding assay re: K-Ras G13C
Description: Disruption of B-Raf Ras-Binding Domain (BRAF^RBD) Interaction with K-Ras by Compounds of the Invention (Also Called a FRET Assay or an MOA Assay)
Note—The following protocol describes a procedure for monitoring disruption of K-Ras G12C (GMP-PNP) binding to BRAF^RBD by a compound of the invention. This protocol may also be executed substituting other Ras proteins or nucleotides.
The purpose of this biochemical assay was to measure the ability of test compounds to facilitate ternary complex formation between a nucleotide-loaded K-Ras isoform and Cyclophilin A; the resulting ternary complex disrupts binding to a BRAF^RBD construct, inhibiting K-Ras signaling through a RAF effector. Data was reported as IC50 values.
In assay buffer containing 25 mM HEPES pH 7.3, 0.002% Tween20, 0.1% BSA, 100 mM NaCl and 5 mM MgCl2, tagless Cyclophilin A, His 6-K-Ras-GMPPNP, and GST-BRAF^RBD were combined in a 384-well assay plate at final concentrations of 25 μM, 12.5 nM and 50 nM, respectively. Compound was present in plate wells as a 10-point 3-fold dilution series starting at a final concentration of 30 μM. […] TR-FRET signal was read on a microplate reader (Ex 320 nm, Em 665/615 nm). […]

[2] = tested on: SW1573; details: Canon et al., Nature 575:217-223 (2019); cited from earlier work
[3] = tested on: SW1573; details: Canon et al., Nature 575:217-223 (2019); cited from earlier work; remark: listed apart in the source
[4] = tested on: AsPC-1 (K-Ras G12D); experiment: pERK potency assay, AsPC-1; format: cell-based; details: Homo sapiens, ASPC1, read-out: IC50 in the pERK potency assay with respect to AsPC-1 (K-Ras G12D)
Description: The purpose of this assay was to measure the ability of test compounds to inhibit K-Ras in cells. Activated K-Ras induces increased phosphorylation of ERK at Threonine 202 and Tyrosine 204 (pERK). This procedure measures a decrease in cellular pERK in response to test compounds. The procedure described below in NCI-H358 cells is applicable to K-Ras G12C.
Note: This protocol may be executed substituting other cell lines to characterize inhibitors of other RAS variants, including, for example, AsPC-1 (K-Ras G12D), Capan-1 (K-Ras G12V), or NCI-H1355 (K-Ras G13C).
NCI-H358 cells were grown and maintained using media and procedures recommended by the ATCC. On the day prior to compound addition, cells were plated in 384-well cell culture plates (40 μl/well) and grown overnight in a 37° C., 5% CO2 incubator. Test compounds were prepared in 10, 3-fold dilutions in DMSO, with a high concentration of 10 mM. […]
In some experiments, cellular pERK level was determined using the AlphaLISA SureFire Ultra p-ERK1/2 Assay Kit (PerkinElmer). […] Signal was read on an Envision plate reader (PerkinElmer) using standard AlphaLISA settings. […] Signal was plotted vs. the decadal logarithm of compound concentration, and IC50 was determined by fitting a 4-parameter sigmoidal concentration response model.

Chain of K-Ras G13C (P01116 1-188 isoform P01116-2 G13C): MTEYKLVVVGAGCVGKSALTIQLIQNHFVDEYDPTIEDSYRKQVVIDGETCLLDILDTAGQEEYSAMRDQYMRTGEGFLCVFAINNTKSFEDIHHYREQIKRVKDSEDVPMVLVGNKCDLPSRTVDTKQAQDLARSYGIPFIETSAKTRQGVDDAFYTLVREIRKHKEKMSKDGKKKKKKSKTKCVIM
Chain of K-Ras G13C (P62937 whole entry partner, the tested form may be a part): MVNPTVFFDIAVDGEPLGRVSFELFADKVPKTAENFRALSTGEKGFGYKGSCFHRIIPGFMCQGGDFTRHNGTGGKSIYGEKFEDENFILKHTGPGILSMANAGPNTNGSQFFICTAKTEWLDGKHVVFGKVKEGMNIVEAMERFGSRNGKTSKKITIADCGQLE

Row | SMILES | pIC50 [1] | pIC50 [4] | also measured
1 | CCn1c(-c2cccnc2[C@H](C)OC)c2c3cc(ccc31)-c1cccc(c1)C[C@H](NC(=O)[C@@H](COC1CN(C(=O)C#CC(C)(C)N(C)C)C1)N(C)C)C(=O)N1CCC[C@H](N1)C(=O)OCC(C)(C)C2 (atropisomer, axis not shown) [EA169] | < 5.82 |  | 
2 | CCn1c(-c2cccnc2[C@H](C)OC)c2c3cc(ccc31)N1CCS[C@@H](C[C@H](NC(=O)[C@@H](COC3CN(C(=O)C#CC(C)(C)N(C)C)C3)C(C)C)C(=O)N3CCC[C@H](N3)C(=O)OCC(C)(C)C2)C1 (atropisomer, axis not shown) [EA171] | < 5.82 |  | 
3 | C=CC(=O)N1CCN(c2nc(=O)n(-c3c(C)ccnc3C(C)C)c3nc(-c4c(O)cccc4F)c(F)cc23)[C@@H](C)C1 [AMG510] |  |  | sensitivity of cell line to RAS inhibitor [2]: insensitive; sensitivity of cell line SW1573 to the inhibitor [3]: insensitive
4 | CCn1c(-c2cccnc2[C@H](C)OC)c2c3cc(ccc31)-c1csc(n1)C[C@H](NC(=O)[C@H](C1CCCC1)N1CC[C@]3(CCN(C(=O)[C@@]4(C)CN4)C3)C1)C(=O)N1CCC[C@H](N1)C(=O)OCC(C)(C)C2 [FA5] |  | < 5.10 | 
5 | CCn1c(-c2cccnc2[C@H](C)OC)c2c3cc(ccc31)-c1cc(cc(C(F)F)c1)C[C@H](NC(=O)[C@H](C(C)C)N1CC[C@]3(CCN(C(=O)[C@@H]4N[C@@H]4C4CC4)C3)C1)C(=O)N1CCC[C@H](N1)C(=O)OCC(C)(C)C2 [FA17] |  | < 5.10 | 
